US20260042764A1, “COMPOSITIONS AND METHODS FOR INHIBITION OF KRAS” (TheRas, Inc., priority 2022, published 2026)

What was measured:
[1] = test system: Capan-2 cells (KRAS G12V); experiment: Cell-based pERK HTRF assay in Capan-2 cells (Biological Example 5)
Method: (§1) Biological Example 5: Cell-based PERK HTRF assay in AsPC-1, SW1900, HPAC, Capan-2, RKN, H358, HCT116, KP-2, H1573, A549, MKN1, and HT1080 cells
(§2) The inhibition of ERK phosphorylation, as measured using the HTRF Advanced Phospho-ERK 1/2 (Thr202/Tyr204) Detection Assay kit (Perkin Elmer), was used to determine the effectiveness of test compounds in disrupting KRAS-driven protein/effector signaling in cells.
(§3) On day 1, cells were seeded into 96-well plates at 2.5×10^4 cells/well in 100 μL of complete growth media supplemented with 10% fetal bovine serum (FBS) and incubated at 37° C., in the presence of 5% CO2.
(§4) On day 2, cells were treated with compounds diluted in DMSO at 0.25% final DMSO concentration. Compounds were dosed in a 9-point concentration curve with three-fold dilution between concentrations. Cells were incubated in the presence of compound for two hours at 37° C. Following this treatment period, cells were harvested by aspirating the media, adding 40 μL of kit-supplied 1x lysis buffer per well, and shaking for 30 minutes at 250 rpm at room temperature.
(§5) Following cell lysis, samples were homogenized by pipetting up and down twenty times and 16 μL of cell lysate per well was transferred from the 96-well cell culture plate to two wells of a 384-well detection plate. A complete detection buffer was prepared by diluting D2 and Eu Cryptate antibodies 1:20 in kit-provided detection solution, 4 μL of complete detection buffer was then added to each well with lysate. Plates were incubated with gentle rocking for 24 hours at 4° C.
(§6) Following this incubation period, plates were centrifuged at 500×g for one minute and analyzed on a CLARIOstar plate reader. Data was imported into Microsoft Excel and the signal from the 665 nm channel was divided by the signal from the 620 nm channel. % pERK was calculated as: […]
(§7) Data was imported to the Prism software package (Graphpad) and EC50 values were calculated using the log (inhibitor) vs, response—variable slopc (Four parameters) model.

SW1900 cells (KRAS G12D) [2] = experiment: 3D Cell viability assay in SW1900 cells (Biological Example 6); format: cell-based; conditions: Homo sapiens; SW1990 (text: SW1900, KRAS G12D) spheroids, 72 hours
Method: (§8) Biological Example 6: 3D Cell viability assay in AsPC-1, SW1900, HPAC, Capan-2, RKN, H358, HCT116, KP-2, H1573, A549, MKN1, and HT1080 cells
(§9) The inhibition of cellular viability as a result of test compound treatment in a spheroid assay was measured using the CellTiter-Glow 3D Cell Viability Assay (Promega).
(§10) On Day 1, 1000 cells per well were seeded in 150 μL of complete growth media supplemented with 10% fetal bovine serum (FBS) and incubated at 37° C., in the presence of 5% CO2 in 96-well ultra-low attachment microplates (Corning) for 48 hours undisturbed to allow spheroids to form.
(§11) Following spheroid formation, cells were treated with compounds diluted in DMSO at 0.25% final DMSO concentration. Compounds were dosed in a 9-point concentration curve with three-fold dilution between concentrations. Cells were incubated in the presence of compound for 72 hours at 37° C., in the presence of 5% CO2.
(§12) Following this incubation period, the kit-provided CTG reagent was allowed to equilibrate for 30 minutes at room temperature, 150 μL of equilibrated CTG reagent was added to each well, and the plate was sealed before shaking at 250 rpm for 10 minutes at room temperature to lyse the cells, 150 μL of lysate per well was transferred to a 96-well plate and luminescence was read on a CLARIOstar plate reader.
(§13) Data was imported into the Prism software package (Graphpad) and EC50 values were calculated using the log (inhibitor) vs, response—variable slope (Four parameters) model.

H358 cells (KRAS G12C) [3] = experiment: Cell-based pERK HTRF assay in H358 cells (Biological Example 5)
Method: as §1, §2, §3, §4, §5, §6, §7

HPAC cells (KRAS G12D) [4] = experiment: 3D Cell viability assay in HPAC cells (Biological Example 6); format: cell-based; conditions: HPAC (KRAS G12D) spheroids
Method: as §8, §9, §10, §11, §12, §13

HPAC cells (KRAS G12D) [5] = experiment: Cell-based pERK HTRF assay in HPAC cells (Biological Example 5)
Method: as §1, §2, §3, §4, §5, §6, §7

HCT116 cells (KRAS G13D) = experiment: 3D Cell viability assay in HCT116 cells (Biological Example 6); format: cell-based; conditions: HCT116 (KRAS G13D) spheroids, 72 hours
Method: as §8, §9, §10, §11, §12, §13

SW1900 cells (KRAS G12D) [6] = experiment: Cell-based pERK HTRF assay in SW1900 cells (Biological Example 5)
Method: as §1, §2, §3, §4, §5, §6, §7

[7] = test system: MKN1 cells (KRAS amplification); experiment: Cell-based pERK HTRF assay in MKN1 cells (Biological Example 5)
Method: as §1, §2, §3, §4, §5, §6, §7

[8] = test system: Capan-2 cells (KRAS G12V); experiment: 3D Cell viability assay in Capan-2 cells (Biological Example 6); format: cell-based; conditions: Capan-2 (KRAS G12V) spheroids, 72 hours
Method: as §8, §9, §10, §11, §12, §13

H358 cells (KRAS G12C) [9] = experiment: 3D Cell viability assay in H358 cells (Biological Example 6); format: cell-based; conditions: H358 (KRAS G12C) spheroids, 72 hours
Method: as §8, §9, §10, §11, §12, §13

[10] = test system: MKN1 cells (KRAS amplification); experiment: 3D Cell viability assay in MKN1 cells (Biological Example 6); format: cell-based; conditions: MKN (MKN1, KRAS amplification) spheroids, 72 hours
Method: as §8, §9, §10, §11, §12, §13

RKN cells (KRAS G12V) [11] = experiment: Cell-based pERK HTRF assay in RKN cells (Biological Example 5)
Method: as §1, §2, §3, §4, §5, §6, §7

RKN cells (KRAS G12V) [12] = experiment: 3D Cell viability assay in RKN cells (Biological Example 6); format: cell-based; conditions: RKN (KRAS G12V) spheroids, 72 hours
Method: as §8, §9, §10, §11, §12, §13

AsPC-1 cells (KRAS G12D) = experiment: 3D Cell viability assay in AsPC-1 cells (Biological Example 6); format: cell-based; conditions: Homo sapiens, ASPC1; AsPC-1 (KRAS G12D) spheroids, 72 hours
Method: as §8, §9, §10, §11, §12, §13

[13] = Homo sapiens, Capan-2, Capan-2 (KRAS G12V) cells
[14] = Homo sapiens, NCI-H358, H358 (KRAS G12C) cells
[15] = Homo sapiens, SW1990, SW1990 cells (text: SW1900, KRAS G12D)
[16] = Homo sapiens, MKN-1, MKN cells (MKN1, KRAS amplification)

| SMILES | IC50 [1, 13] [nM] | IC50 (SW1900 cells (KRAS G12D) [2]) [nM] | IC50 (H358 cells (KRAS G12C) [3]; [14]) [nM] | IC50 (HPAC cells (KRAS G12D) [5]; Homo sapiens, HPAC) [nM] | IC50 (HCT116 cells (KRAS G13D); Homo sapiens, HCT-116) [nM] | IC50 (SW1900 cells (KRAS G12D) [6]; [15]) [nM] | IC50 [7, 16] [nM] | IC50 (H358 cells (KRAS G12C) [9]; Homo sapiens, NCI-H358) [nM] | IC50 ([10]; Homo sapiens, MKN-1) [nM] | IC50 (RKN cells (KRAS G12V) [11]) [nM] | IC50 (HPAC cells (KRAS G12D) [4]; Homo sapiens, HPAC, 72 h) [nM] | IC50 ([8]; Homo sapiens) [nM] | IC50 (RKN cells (KRAS G12V) [12]) [nM] | other results |
| --- | --- | --- | --- | --- | --- | --- | --- | --- | --- | --- | --- | --- | --- | --- |
| CCN(c1nc(OC[C@@]23CCCN2C[C@H](F)C3)nc2c(F)c(-c3ccc(F)c4sc(N)c(C#N)c34)c(Cl)cc12)[C@@H]1CCN(C(C)=O)[C@@H]1C [Compound 323] | ≤ 100 | ≤ 100 | ≤ 100 | ≤ 100 | 100 to 1000 | ≤ 100 | ≤ 100 | ≤ 100 | ≤ 100 | – | ≤ 100 | ≤ 100 | – | – |
| CC(=O)N1CC[C@@H](N(C)c2nc(OC[C@@]34CCCN3C[C@H](F)C4)nc3c(F)c(-c4ccc(F)c5sc(N)c(C#N)c45)c(Cl)cc23)[C@H]1C [Compound 398] | ≤ 100 | 100 to 1000 | ≤ 100 | 100 to 1000 | 100 to 1000 | ≤ 100 | ≤ 100 | ≤ 100 | ≤ 100 | – | 100 to 1000 | 100 to 1000 | – | – |
| CCN(c1nc(OC[C@@]23CCCN2C[C@H](F)C3)nc2c(F)c(-c3ccc(F)c4sc(N)c(C#N)c34)c(C(F)(F)F)cc12)[C@H]1C[C@H](COC)N(C(=O)C2CC2)C1 (atropisomer, axis not shown) [Compound 696] | ≤ 100 | ≤ 100 | ≤ 100 | – | 100 to 1000 | ≤ 100 | ≤ 100 | ≤ 100 | ≤ 100 | ≤ 100 | – | ≤ 100 | ≤ 100 | IC50 (AsPC-1 cells (KRAS G12D)): ≤ 100 nM |
| CC(=O)N1CC[C@@H](N(C)c2nc(OC[C@@]34CCCN3C[C@H](F)C4)nc3c(F)c(-c4ccc(F)c5sc(N)c(C#N)c45)c(C(F)(F)F)cc23)[C@H]1C (single isomer, unassigned) [Compound 193] | ≤ 100 | – | ≤ 100 | ≤ 100 | ≤ 100 | ≤ 100 | ≤ 100 | ≤ 100 | ≤ 100 | – | 100 to 1000 | ≤ 100 | – | – |

More lines, main results first:

| IC50 [1, 13] [nM] | IC50 (SW1900 cells (KRAS G12D) [2]) [nM] | IC50 (H358 cells (KRAS G12C) [3]; [14]) [nM] | IC50 (HPAC cells (KRAS G12D) [5]; Homo sapiens, HPAC) [nM] | IC50 (HCT116 cells (KRAS G13D); Homo sapiens, HCT-116) [nM] | IC50 (SW1900 cells (KRAS G12D) [6]; [15]) [nM] | IC50 [7, 16] [nM] | IC50 (H358 cells (KRAS G12C) [9]; Homo sapiens, NCI-H358) [nM] | IC50 ([10]; Homo sapiens, MKN-1) [nM] | IC50 (RKN cells (KRAS G12V) [11]) [nM] | SMILES | IC50 (HPAC cells (KRAS G12D) [4]; Homo sapiens, HPAC, 72 h) [nM] | IC50 ([8]; Homo sapiens) [nM] | IC50 (RKN cells (KRAS G12V) [12]) [nM] | other results |
| --- | --- | --- | --- | --- | --- | --- | --- | --- | --- | --- | --- | --- | --- | --- |
| – | – | – | – | – | – | – | – | – | ≤ 100 | CN(c1nc(OC[C@@]23CCCN2C[C@H](F)C3)nc2c(F)c(-c3ccc(F)c4sc(N)c(C#N)c34)c(C(F)(F)F)cc12)[C@H]1C[C@@H](O)C1 [Compound 19, 2-amino-7-fluoro-4-((S)-8-fluoro-2-(((2R,7aS)-2-fluorotetrahydro-1H-pyrrolizin-7a(5H)-yl)methoxy)-4-(((1s,3R)-3-hydroxycyclobutyl)(methyl)amino)-6-(trifluoromethyl)quinazolin-7-yl)benzo[b]thiophene-3-carbonitrile] | – | – | ≤ 100 | IC50 ([1]; Capan-2 (KRAS G12V) cells): ≤ 100 nM; IC50 (H358 cells (KRAS G12C) [3]; H358 (KRAS G12C) cells): ≤ 100 nM; IC50 (HPAC cells (KRAS G12D) [4]; 72 hours): 100 to 1000 nM; IC50 (HPAC cells (KRAS G12D) [5]): ≤ 100 nM; IC50 (HCT116 cells (KRAS G13D)): ≤ 100 nM; IC50 (SW1900 cells (KRAS G12D) [6]; SW1990 cells (text: SW1900, KRAS G12D)): ≤ 100 nM; IC50 ([7]; MKN cells (MKN1, KRAS amplification)): ≤ 100 nM; IC50 [8]: 100 to 1000 nM; IC50 (H358 cells (KRAS G12C) [9]): ≤ 100 nM; IC50 [10]: ≤ 100 nM |
| ≤ 100 | ≤ 100 | ≤ 100 | ≤ 100 | ≤ 100 | ≤ 100 | – | ≤ 100 | – | – | N#Cc1c(N)sc2c(F)ccc(-c3c(C(F)(F)F)cc4c(N5CCCOCC5)nc(OC[C@@]56CCCN5C[C@H](F)C6)nc4c3F)c12 [Compound 232] | > 1000 | – | – | – |
